{"source": "patent US20050215551A1", "about": "“1-[2H-1-benzopyran-2-one-8-yl]- piperazine derivatives for the treatment of movement disorders” (SOLVAY PHARMACEUTICALS B.V., priority 2004, published 2005)", "key": {"Muscarine-M4": {"molecular_target": "Muscarine-M4 (Homo sapiens, UniProt P08173)", "sequence (P08173 whole entry)": "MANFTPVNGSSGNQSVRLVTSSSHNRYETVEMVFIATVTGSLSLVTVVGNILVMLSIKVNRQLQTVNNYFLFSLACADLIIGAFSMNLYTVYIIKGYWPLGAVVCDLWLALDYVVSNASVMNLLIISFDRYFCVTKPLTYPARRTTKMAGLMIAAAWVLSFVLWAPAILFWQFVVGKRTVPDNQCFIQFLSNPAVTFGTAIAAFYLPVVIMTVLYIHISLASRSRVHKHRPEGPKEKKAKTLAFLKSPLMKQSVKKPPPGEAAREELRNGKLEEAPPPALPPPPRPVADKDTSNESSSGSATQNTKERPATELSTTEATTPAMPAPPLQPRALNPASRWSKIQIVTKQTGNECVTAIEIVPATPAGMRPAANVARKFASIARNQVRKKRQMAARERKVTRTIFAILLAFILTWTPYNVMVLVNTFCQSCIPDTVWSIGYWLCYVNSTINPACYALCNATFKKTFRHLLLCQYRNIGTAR", "assay": "Receptor binding Muscarine-M4", "conditions": "radioligand [3H]-4-DAMP, read-out: Ki(nM) Compound 1", "procedure": "(§1) Receptor binding data were obtained by CEREP (128, rue Danton, 92500 Rueil-Malmaison, France) or at Solvay Pharmaceuticals B.V., using well documented standard procedures. Affinity for 5-HT1A receptors for instance, was determined by testing the ability of the compounds of the invention to displace [^3H]-2-(di-n-propylamino)-8-hydroxytetralin ([^3H]-8-OH-DPAT) from its specific binding sites in rat frontal cortex homogenates. This test is based on the method described by Gozlan et al. (Nature, 305, (1983), pages 140-142).\n(§2) The binding data collected in the table below were either obtained by CEREP (128, rue Danton, 92500 Rueil-Malmaison, France) or at Solvay Pharmaceuticals B.V., using well documented standard procedures."}, "Dopamine-D5": {"molecular_target": "Dopamine-D5 (Homo sapiens, UniProt P21918)", "sequence (P21918 whole entry)": "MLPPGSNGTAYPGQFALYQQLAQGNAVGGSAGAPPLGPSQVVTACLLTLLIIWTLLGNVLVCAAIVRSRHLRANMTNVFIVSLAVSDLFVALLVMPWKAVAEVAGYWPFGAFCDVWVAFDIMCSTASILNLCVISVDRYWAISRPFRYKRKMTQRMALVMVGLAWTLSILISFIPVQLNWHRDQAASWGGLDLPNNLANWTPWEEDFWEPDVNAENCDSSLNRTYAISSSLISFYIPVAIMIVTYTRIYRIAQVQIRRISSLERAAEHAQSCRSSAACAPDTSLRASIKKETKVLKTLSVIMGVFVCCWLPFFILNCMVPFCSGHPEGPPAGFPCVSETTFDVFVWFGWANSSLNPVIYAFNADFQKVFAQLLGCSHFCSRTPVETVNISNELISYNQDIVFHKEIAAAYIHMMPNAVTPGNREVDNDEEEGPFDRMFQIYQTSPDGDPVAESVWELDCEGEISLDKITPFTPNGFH", "assay": "Receptor binding Dopamine-D5", "conditions": "radioligand [3H]-SCH 23390, read-out: Ki(nM) Compound 1", "procedure": "as §1, §2"}, "Galanin-GAL1": {"molecular_target": "Galanin-GAL1 (Homo sapiens, UniProt P47211)", "sequence (P47211 whole entry)": "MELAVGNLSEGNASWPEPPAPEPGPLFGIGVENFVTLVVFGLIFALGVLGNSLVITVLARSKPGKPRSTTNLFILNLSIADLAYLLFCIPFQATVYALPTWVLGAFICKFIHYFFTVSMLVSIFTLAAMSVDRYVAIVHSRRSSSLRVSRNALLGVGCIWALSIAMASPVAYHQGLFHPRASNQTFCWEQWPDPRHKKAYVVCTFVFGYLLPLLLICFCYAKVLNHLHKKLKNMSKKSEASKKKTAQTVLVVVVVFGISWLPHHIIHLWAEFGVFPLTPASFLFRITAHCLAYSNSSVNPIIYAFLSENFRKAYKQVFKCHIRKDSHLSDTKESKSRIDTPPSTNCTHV", "assay": "Receptor binding Galanin-GAL1", "conditions": "radioligand [125I]-galanin, read-out: Ki(nM) Compound 1", "procedure": "as §1, §2"}, "β3-adrenergic": {"molecular_target": "β3-adrenergic (Homo sapiens, UniProt P13945)", "assay": "Receptor binding β3-adrenergic", "conditions": "radioligand [125I]-iodocyanopindolol, read-out: Ki(nM) Compound 1", "procedure": "as §1, §2"}, "angiotensin-AT1": {"molecular_target": "angiotensin-AT1 (Homo sapiens, UniProt P30556)", "sequence (P30556 whole entry)": "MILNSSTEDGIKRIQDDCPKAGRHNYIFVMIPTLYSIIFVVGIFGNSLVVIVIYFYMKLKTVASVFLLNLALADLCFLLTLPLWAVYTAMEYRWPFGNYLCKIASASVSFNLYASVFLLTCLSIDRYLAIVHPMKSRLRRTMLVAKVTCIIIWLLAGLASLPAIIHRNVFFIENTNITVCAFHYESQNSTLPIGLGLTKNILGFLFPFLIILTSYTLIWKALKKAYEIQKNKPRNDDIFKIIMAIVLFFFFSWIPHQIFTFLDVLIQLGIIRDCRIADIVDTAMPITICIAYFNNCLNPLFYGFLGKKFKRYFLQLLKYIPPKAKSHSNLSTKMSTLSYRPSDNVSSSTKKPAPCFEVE", "assay": "Receptor binding angiotensin-AT1", "conditions": "radioligand [125I]-angiotensin II, read-out: Ki(nM) Compound 1", "procedure": "as §1, §2"}, "μ-opiate": {"molecular_target": "μ-opiate (Rattus norvegicus, UniProt P33535)", "sequence (P33535 whole entry)": "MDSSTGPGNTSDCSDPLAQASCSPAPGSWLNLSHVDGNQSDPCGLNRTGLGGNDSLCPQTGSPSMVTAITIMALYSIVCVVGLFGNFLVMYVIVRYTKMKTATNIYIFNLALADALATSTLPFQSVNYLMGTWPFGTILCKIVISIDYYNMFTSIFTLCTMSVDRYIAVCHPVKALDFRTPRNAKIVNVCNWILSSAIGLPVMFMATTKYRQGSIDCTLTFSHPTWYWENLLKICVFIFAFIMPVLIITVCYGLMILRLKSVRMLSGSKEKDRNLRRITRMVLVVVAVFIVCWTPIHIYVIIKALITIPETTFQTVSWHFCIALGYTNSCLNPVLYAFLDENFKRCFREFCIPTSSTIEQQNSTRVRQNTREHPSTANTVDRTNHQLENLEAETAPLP", "assay": "Receptor binding μ-opiate", "conditions": "radioligand [3H]-DAMGO, read-out: Ki(nM) Compound 1", "procedure": "as §1, §2"}, "CCKA": {"molecular_target": "CCKA (Homo sapiens, UniProt P32238)", "sequence (P32238 whole entry)": "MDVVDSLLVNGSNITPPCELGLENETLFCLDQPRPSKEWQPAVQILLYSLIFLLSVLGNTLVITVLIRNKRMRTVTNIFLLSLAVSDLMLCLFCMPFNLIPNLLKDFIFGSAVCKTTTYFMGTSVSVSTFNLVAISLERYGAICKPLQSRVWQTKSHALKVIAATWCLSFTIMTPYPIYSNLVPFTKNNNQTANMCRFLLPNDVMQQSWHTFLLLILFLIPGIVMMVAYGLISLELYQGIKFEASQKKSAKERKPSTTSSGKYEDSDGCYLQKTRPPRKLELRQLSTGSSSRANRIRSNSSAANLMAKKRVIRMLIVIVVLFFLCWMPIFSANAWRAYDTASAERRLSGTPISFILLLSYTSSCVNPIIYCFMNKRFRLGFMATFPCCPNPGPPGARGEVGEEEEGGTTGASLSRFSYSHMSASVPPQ", "assay": "Receptor binding CCKA", "conditions": "radioligand [3H]-devazepide, read-out: Ki(nM) Compound 1", "procedure": "as §1, §2"}, "CCKB": {"molecular_target": "CCKB (Homo sapiens, UniProt P32239)", "sequence (P32239 whole entry)": "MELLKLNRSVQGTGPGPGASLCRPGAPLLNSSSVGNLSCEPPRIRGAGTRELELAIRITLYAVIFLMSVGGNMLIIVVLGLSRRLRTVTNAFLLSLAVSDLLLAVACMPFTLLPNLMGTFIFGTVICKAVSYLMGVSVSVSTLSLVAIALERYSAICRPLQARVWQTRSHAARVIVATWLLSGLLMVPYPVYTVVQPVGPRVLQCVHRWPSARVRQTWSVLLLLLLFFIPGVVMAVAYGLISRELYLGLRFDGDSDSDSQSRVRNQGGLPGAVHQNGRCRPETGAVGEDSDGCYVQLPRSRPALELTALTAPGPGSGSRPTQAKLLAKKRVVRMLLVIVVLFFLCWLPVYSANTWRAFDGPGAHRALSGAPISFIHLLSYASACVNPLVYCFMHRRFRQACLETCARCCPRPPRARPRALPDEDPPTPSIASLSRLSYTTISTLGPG", "assay": "Receptor binding CCKB", "conditions": "radioligand [3H]-CCK8, read-out: Ki(nM) Compound 1", "procedure": "as §1, §2"}, "CCR1": {"molecular_target": "CCR1 (Homo sapiens, UniProt P32246)", "sequence (P32246 whole entry)": "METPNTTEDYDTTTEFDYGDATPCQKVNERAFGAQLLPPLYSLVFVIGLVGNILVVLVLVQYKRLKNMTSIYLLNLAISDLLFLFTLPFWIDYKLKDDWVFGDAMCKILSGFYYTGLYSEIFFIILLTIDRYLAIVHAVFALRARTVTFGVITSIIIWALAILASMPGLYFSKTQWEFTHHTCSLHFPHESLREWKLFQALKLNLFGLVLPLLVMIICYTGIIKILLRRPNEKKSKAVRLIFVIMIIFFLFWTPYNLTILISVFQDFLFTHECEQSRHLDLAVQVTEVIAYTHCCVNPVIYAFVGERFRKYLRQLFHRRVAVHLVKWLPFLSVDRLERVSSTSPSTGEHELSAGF", "assay": "Receptor binding CCR1", "conditions": "radioligand [125I]-MIP-1a, read-out: Ki(nM) Compound 1", "procedure": "as §1, §2"}, "Muscarine-M3": {"molecular_target": "Muscarine-M3 (Homo sapiens, UniProt P20309)", "sequence (P20309 whole entry)": "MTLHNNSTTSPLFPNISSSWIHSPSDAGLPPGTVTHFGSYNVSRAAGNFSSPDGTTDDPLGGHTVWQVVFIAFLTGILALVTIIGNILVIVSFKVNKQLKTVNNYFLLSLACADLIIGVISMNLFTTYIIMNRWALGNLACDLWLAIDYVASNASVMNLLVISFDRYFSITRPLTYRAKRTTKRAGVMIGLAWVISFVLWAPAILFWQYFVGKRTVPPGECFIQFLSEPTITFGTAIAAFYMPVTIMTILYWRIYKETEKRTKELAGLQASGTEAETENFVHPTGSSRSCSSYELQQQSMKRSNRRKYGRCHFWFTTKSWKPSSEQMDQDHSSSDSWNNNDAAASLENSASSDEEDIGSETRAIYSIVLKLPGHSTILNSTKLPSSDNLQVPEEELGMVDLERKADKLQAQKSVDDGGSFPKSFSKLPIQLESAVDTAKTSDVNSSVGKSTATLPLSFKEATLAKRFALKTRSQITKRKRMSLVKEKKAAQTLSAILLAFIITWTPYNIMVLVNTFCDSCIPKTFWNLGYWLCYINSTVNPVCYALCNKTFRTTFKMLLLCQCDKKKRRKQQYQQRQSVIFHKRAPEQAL", "assay": "Receptor binding Muscarine-M3", "conditions": "radioligand [3H]-4-DAMP, read-out: Ki(nM) Compound 1", "procedure": "as §1, §2"}, "[1]": {"test_system": "rats with unilateral 6-OHDA lesions", "assay": "Turning experiments in animals with unilateral 6-hydroxydopamine lesions of the substantia nigra compacta", "type": "in vivo", "procedure": "Male rats (Wistar, Harlan, Netherlands; 400-500 g at time of experiment) are housed in a temperature (20-21±2° C.) and humidity controlled environment and receive water ad libitum except during experimental sessions. Food is restricted to approximately 15 g per rat per day. A 12-hour light-dark cycle (lights on 07.00-19.00 hour) is used.\nUnilateral 6-hydroxydopamine (6-OH DA) lesions of the substantia nigra zona compacta are performed using a stereotaxic procedure. One hour prior to surgery, desmethyl-imipramine (20 mg/kg, i.p.) is administered to protect noradrenergic neurons. Rats are anaesthetized with a 3% halothane+0.8 l/min N2O+0.8 l/min O2-gas mixture at 1013 mbar. During surgery the gas mixture is adjusted to 1.75-2% halothane, 0.6 l/min N2O and 0.6 l/min O2. The incisor bar of the stereotaxic instrument (Kopf, Calif., USA) iss set at −3.3 mm, a burr hole was drilled over the substantia nigra pars compacta and 3 μl of a 6-OHDA solution (3.33 mg/ml) is injected (flow rate=0.75 μl/min; the needle is left in place for 4 minutes prior to withdrawal). Coordinates for this procedure are: anterior posterior +3.2 mm from the interaural line; medial/lateral +1.8 mm from the midline and ventral −8.2 from the skull surface. Animals are allowed to recover for approximately 2 weeks prior to testing. Good turning rats are defined as those which elicited at least 20 contralateral turns following amphetamine (2.5 mg/kg sc) in the 5 min time epoch beginning 25 min after administration and a mean of at least 20 contralateral turns recorded over a 30 min period after administration of apomorphine (0.25 mg/kg s.c.). Regular testing with apomorphine (0.1 or 0.25 mg/kg s.c.) is carried out to ensure the reliability of the animals in this procedure.\nEight commercially available (TSE systems Bad Homburg, Germany) ‘rotameter’ units (transparent plastic bowls; 57×55×52 cm) are used for testing. The rats are harnessed and tethered to a rotation sensor interfaced to an IBM compatible personal computer (using the TSE Rotameter Software v. 1.11, TSE systems Bad Homburg, Germany) which registers clockwise or counterclockwise movement. An internal software rotation filter of 10 is used.\nFollowing statistical randomization of the treatment groups rats are pretreated with compounds of the invention (0.1-3 mg/kg p.o.) or vehicle (2 ml/kg) and placed in the rotameters the contralateral rotational behaviour is then measured. In further studies the effects of L-DOPA (1-10 mg/kg p.o.) are assessed on contralateral rotations. The peripheral decarboxylase inhibitor benserazide (30 mg/kg i.p.) can be used. In combination studies a range of L-DOPA (1-10) doses and doses of compounds of the invention (0.1-3 mg/kg p.o.) can be combined."}, "Muscarine-M1": {"molecular_target": "Muscarine-M1 (Homo sapiens, UniProt P11229)", "assay": "Receptor binding Muscarine-M1", "conditions": "radioligand [3H]-pirenzepine, read-out: Ki(nM) Compound 1", "procedure": "as §1, §2"}, "Histamine-H2": {"molecular_target": "Histamine-H2 (Homo sapiens, UniProt P25021)", "sequence (P25021 whole entry)": "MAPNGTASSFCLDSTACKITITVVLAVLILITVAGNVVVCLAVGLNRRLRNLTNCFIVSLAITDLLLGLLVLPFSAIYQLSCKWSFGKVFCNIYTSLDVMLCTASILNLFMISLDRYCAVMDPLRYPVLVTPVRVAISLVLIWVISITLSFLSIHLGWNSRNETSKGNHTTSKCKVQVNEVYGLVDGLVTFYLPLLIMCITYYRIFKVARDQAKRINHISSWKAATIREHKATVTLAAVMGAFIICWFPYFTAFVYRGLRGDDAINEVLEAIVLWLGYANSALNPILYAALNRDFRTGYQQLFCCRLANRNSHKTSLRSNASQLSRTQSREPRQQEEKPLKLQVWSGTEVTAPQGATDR", "assay": "Receptor binding Histamine-H2", "conditions": "radioligand [125I]-APT, read-out: Ki(nM) Compound 1", "procedure": "as §1, §2"}, "angiotensin-AT2": {"molecular_target": "angiotensin-AT2 (Homo sapiens, UniProt P50052)", "sequence (P50052 whole entry)": "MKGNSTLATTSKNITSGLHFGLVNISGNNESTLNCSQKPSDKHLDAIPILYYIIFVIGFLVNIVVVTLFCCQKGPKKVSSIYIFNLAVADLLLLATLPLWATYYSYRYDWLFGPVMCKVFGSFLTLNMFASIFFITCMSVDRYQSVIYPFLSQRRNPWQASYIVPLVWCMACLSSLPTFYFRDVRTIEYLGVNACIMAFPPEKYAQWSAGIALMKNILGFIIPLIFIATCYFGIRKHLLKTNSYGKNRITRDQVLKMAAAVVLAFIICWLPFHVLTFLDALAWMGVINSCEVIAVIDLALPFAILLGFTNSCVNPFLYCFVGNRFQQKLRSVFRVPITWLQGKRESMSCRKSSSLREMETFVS", "assay": "Receptor binding angiotensin-AT2", "conditions": "radioligand [125I]-CPG 42112A, read-out: Ki(nM) Compound 1", "procedure": "as §1, §2"}, "Adenosine-A1": {"molecular_target": "Adenosine-A1 (Homo sapiens, UniProt P30542)", "sequence (P30542 whole entry)": "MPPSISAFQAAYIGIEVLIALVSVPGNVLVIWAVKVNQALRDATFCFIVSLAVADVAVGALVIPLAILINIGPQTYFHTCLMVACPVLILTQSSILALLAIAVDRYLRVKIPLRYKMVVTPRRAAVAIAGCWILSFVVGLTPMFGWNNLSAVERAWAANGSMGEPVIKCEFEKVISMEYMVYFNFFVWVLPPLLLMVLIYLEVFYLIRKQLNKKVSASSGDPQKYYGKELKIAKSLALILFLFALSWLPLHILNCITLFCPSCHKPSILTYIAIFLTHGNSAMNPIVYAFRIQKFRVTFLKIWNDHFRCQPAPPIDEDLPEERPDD", "assay": "Receptor binding Adenosine-A1", "conditions": "radioligand [3H]-DPCPX, read-out: Ki(nM) Compound 1", "procedure": "as §1, §2"}, "cannabinoid-CB1": {"molecular_target": "cannabinoid-CB1 (Homo sapiens, UniProt P21554)", "assay": "Receptor binding cannabinoid-CB1", "conditions": "radioligand [3H]-WIN 55,212-2, read-out: Ki(nM) Compound 1", "procedure": "as §1, §2"}}, "note": "Marks after values point to notes of the source that are not given here.", "data": [{"compound": "Nc1cc2cccc(N3CCNCC3)c2oc1=O", "note": "[Compound 1, 3-amino-8-(1-piperazinyl)-2H-1-benzopyran-2-one]", "values": [{"measurement": "Ki", "setting": "Muscarine-M4", "result": "> 1000", "unit": "nM"}, {"measurement": "Ki", "setting": "Dopamine-D5", "result": "> 1000", "unit": "nM"}, {"measurement": "Ki", "setting": "Galanin-GAL1", "result": "> 1000", "unit": "nM"}, {"measurement": "Ki", "setting": "β3-adrenergic", "result": "> 1000", "unit": "nM"}, {"measurement": "Ki", "setting": "angiotensin-AT1", "result": "> 1000", "unit": "nM"}, {"measurement": "Ki", "setting": "μ-opiate", "result": "> 1000", "unit": "nM"}, {"measurement": "Ki", "setting": "CCKA", "result": "> 1000", "unit": "nM"}, {"measurement": "Ki", "setting": "CCKB", "result": "> 1000", "unit": "nM"}, {"measurement": "Ki", "setting": "CCR1", "result": "> 1000", "unit": "nM"}, {"measurement": "Ki", "setting": "Muscarine-M3", "result": "> 1000", "unit": "nM"}, {"measurement": "Mean number of turns (rotations contralateral to the direction of a 6-OHDA lesion)", "setting": "[1]; 0.3 mg/kg p.o.", "result": 20.925}, {"measurement": "Mean number of turns (rotations contralateral to the direction of a 6-OHDA lesion)", "setting": "[1]; 0.5 mg/kg p.o.", "result": 22.988}, {"measurement": "Mean number of turns (rotations contralateral to the direction of a 6-OHDA lesion)", "setting": "[1]; 0.75 mg/kg p.o.", "result": "106.35*"}, {"measurement": "Mean number of turns (rotations contralateral to the direction of a 6-OHDA lesion)", "setting": "[1]; 1.0 mg/kg p.o.", "result": "77.1*"}, {"measurement": "minimal effective dose, contralateral rotation", "setting": "[1]; p.o.", "result": 0.75, "unit": "mg/kg"}, {"measurement": "Ki", "setting": "Muscarine-M1", "result": "> 1000", "unit": "nM"}, {"measurement": "Ki", "setting": "Histamine-H2", "result": "> 1000", "unit": "nM"}, {"measurement": "Ki", "setting": "angiotensin-AT2", "result": "> 1000", "unit": "nM"}, {"measurement": "Ki", "setting": "Adenosine-A1", "result": "> 1000", "unit": "nM"}, {"measurement": "Ki", "setting": "cannabinoid-CB1", "result": "> 10000", "unit": "nM"}]}]}
